# Measured values: patent US11725011B2, “Bicyclic urea kinase inhibitors and uses thereof” (The Broad Institute, Inc., priority 2016, dated 2023)
# Key:
# Assay in all cases: KINOMEscan
# Format in all cases: binding
# Conditions in all cases: 1 uM
# PIK3CA (E545A) = PIK3CA (E545A) (Homo sapiens (Human), UniProt P42336, E545A)
# DDR1 = DDR1 (Homo sapiens (Human), UniProt Q08345)
# LATS2 = LATS2 (Homo sapiens (Human), UniProt Q9NRM7)
# YES = YES (Homo sapiens (Human), UniProt P07947)
# FGFR4 = FGFR4 (Homo sapiens (Human), UniProt P22455)
# EPHA4 = EPHA4 (Homo sapiens (Human), UniProt P54764)
# AURKC = AURKC (Homo sapiens (Human), UniProt Q9UQB9)
# ARK5 = ARK5 (Homo sapiens (Human), UniProt O60285)
# NEK3 = NEK3 (Homo sapiens (Human), UniProt P51956)
# ERBB2 = ERBB2 (Homo sapiens (Human), UniProt P04626)
# ACVR1 = ACVR1 (Homo sapiens (Human), UniProt Q04771)
# BIKE = BIKE (Homo sapiens (Human), UniProt Q9NSY1)
# YANK1 = YANK1 (Homo sapiens (Human), UniProt Q8WU08)
# MKNK2 = MKNK2 (Homo sapiens (Human), UniProt Q9HBH9)
# NDR1 = NDR1 (Homo sapiens (Human), UniProt Q15208)
# CDK4-cyclinD3 = CDK4-cyclinD3 (Homo sapiens (Human), UniProt P11802)
# [1] = molecular target: RSK2 (Kin.Dom.1-N-terminal) (Homo sapiens (Human), UniProt P51812)
# CLK1 = CLK1 (Homo sapiens (Human), UniProt P49759)
# GRK1 = GRK1 (Homo sapiens (Human), UniProt Q15835)
# PIK3CA (H1047L) = PIK3CA (H1047L) (Homo sapiens (Human), UniProt P42336, H1047L)
# HPK1 = HPK1 (Homo sapiens (Human), UniProt Q92918)
# [2] = molecular target: ABL1 (Q252H)-nonphosphorylated (Homo sapiens (Human), UniProt P00519, Q252H)
# LIMK2 = LIMK2 (Homo sapiens (Human), UniProt P53671)
# MEK2 = MEK2 (Homo sapiens (Human), UniProt P36507)
# DAPK1 = DAPK1 (Homo sapiens (Human), UniProt P53355)
# MAP3K2 = MAP3K2 (Homo sapiens (Human), UniProt Q9Y2U5)
# FLT3 (ITD) = system: FLT3 (ITD)
# HASPIN = HASPIN (Homo sapiens (Human), UniProt Q8TF76)
# MLK2 = MLK2 (Homo sapiens (Human), UniProt Q02779)
# ERK1 = ERK1 (Homo sapiens (Human), UniProt P27361)
# MAP3K15 = MAP3K15 (Homo sapiens (Human), UniProt Q6ZN16)
# GCN2 (Kin.Dom.2, S808G) = GCN2 (Kin.Dom.2, S808G) (Homo sapiens (Human), UniProt Q9P2K8, S808G)
# FYN = FYN (Homo sapiens (Human), UniProt P06241)
# OSR1 = OSR1 (Homo sapiens (Human), UniProt O95747)
# PCTK1 = PCTK1 (Homo sapiens (Human), UniProt Q00536)
# [3] = molecular target: ABL1 (F317L)-phosphorylated (Homo sapiens (Human), UniProt P00519, F317L)
# PRKD2 = PRKD2 (Homo sapiens (Human), UniProt Q9BZL6)
# SRC = SRC (Homo sapiens (Human), UniProt P12931)
# MERTK = MERTK (Homo sapiens (Human), UniProt Q12866)
# ERK2 = ERK2 (Homo sapiens (Human), UniProt P28482)
# KIT (D816V) = KIT (D816V) (Homo sapiens (Human), UniProt P10721, D816V)
# Chain of YES (P07947 whole entry): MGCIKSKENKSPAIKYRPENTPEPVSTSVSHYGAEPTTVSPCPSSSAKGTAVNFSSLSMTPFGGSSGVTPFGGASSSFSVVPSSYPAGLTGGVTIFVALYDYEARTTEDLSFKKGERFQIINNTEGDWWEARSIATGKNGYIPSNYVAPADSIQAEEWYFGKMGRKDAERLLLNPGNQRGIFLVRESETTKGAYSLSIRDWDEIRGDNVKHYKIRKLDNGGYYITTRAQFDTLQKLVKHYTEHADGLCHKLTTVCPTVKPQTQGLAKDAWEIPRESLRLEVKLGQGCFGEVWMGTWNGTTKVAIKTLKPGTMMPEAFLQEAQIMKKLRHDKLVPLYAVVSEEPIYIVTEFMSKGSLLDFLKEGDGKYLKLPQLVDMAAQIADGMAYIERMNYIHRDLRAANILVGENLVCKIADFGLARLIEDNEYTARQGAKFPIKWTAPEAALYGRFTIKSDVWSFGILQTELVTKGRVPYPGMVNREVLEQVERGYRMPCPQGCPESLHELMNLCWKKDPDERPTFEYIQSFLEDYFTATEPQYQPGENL
# Chain of DDR1 (Q08345 19-913): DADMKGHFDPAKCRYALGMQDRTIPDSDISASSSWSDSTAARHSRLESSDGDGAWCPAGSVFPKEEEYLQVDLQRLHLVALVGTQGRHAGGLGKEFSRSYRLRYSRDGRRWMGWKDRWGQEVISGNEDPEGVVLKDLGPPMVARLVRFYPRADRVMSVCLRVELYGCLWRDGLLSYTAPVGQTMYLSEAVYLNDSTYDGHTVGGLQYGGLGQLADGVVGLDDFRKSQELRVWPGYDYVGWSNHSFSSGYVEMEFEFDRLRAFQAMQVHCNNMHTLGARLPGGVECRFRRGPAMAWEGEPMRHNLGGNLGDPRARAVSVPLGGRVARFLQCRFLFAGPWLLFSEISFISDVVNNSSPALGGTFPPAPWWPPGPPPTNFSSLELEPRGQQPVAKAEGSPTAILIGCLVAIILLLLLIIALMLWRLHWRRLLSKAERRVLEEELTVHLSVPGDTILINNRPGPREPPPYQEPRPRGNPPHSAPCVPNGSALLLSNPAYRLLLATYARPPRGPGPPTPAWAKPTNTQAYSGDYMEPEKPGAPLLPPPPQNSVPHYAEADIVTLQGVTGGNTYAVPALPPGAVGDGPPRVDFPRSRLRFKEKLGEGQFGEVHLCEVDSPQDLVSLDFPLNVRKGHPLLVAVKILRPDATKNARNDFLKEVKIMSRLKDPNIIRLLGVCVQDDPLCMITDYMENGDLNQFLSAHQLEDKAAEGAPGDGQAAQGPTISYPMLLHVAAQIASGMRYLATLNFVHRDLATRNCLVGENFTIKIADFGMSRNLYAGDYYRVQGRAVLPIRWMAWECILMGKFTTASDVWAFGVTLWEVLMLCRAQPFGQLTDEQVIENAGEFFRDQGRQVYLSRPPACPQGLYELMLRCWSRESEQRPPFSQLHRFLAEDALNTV
# Chain of NEK3 (P51956 whole entry): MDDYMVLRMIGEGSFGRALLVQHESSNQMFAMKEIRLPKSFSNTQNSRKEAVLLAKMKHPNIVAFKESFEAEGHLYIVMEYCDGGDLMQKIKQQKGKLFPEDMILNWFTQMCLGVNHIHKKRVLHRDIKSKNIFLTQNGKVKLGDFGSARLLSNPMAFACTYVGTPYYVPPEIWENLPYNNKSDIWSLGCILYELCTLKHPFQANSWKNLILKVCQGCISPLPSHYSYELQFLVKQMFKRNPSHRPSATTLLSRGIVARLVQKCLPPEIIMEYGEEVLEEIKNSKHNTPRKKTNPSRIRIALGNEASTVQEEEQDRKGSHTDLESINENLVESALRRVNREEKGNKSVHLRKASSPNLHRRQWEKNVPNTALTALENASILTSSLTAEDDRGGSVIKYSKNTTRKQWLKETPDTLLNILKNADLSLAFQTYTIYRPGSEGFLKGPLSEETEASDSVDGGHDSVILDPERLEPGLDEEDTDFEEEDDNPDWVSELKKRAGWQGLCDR
# Chain of HPK1 (Q92918 whole entry): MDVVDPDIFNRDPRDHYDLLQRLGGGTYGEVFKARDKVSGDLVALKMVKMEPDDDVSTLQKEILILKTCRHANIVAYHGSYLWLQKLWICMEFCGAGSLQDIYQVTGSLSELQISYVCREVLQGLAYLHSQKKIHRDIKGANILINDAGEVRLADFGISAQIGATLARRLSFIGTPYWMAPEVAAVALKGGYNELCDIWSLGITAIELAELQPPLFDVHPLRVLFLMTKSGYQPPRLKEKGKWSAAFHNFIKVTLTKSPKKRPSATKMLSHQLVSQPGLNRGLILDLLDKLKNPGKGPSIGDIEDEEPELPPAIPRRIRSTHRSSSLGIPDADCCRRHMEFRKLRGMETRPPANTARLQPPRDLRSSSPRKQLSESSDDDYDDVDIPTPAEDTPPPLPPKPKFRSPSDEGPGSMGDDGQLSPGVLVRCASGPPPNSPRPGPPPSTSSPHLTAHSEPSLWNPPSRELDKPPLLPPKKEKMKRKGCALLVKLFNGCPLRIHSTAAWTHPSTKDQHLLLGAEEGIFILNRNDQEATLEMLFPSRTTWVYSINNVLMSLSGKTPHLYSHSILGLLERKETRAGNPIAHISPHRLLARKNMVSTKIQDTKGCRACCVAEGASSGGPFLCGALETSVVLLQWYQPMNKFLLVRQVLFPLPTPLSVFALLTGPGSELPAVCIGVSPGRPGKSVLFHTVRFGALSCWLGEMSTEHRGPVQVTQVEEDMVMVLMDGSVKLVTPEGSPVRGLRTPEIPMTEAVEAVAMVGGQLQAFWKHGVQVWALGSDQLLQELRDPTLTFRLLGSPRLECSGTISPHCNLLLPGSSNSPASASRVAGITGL
# Chain of HASPIN (Q8TF76 whole entry): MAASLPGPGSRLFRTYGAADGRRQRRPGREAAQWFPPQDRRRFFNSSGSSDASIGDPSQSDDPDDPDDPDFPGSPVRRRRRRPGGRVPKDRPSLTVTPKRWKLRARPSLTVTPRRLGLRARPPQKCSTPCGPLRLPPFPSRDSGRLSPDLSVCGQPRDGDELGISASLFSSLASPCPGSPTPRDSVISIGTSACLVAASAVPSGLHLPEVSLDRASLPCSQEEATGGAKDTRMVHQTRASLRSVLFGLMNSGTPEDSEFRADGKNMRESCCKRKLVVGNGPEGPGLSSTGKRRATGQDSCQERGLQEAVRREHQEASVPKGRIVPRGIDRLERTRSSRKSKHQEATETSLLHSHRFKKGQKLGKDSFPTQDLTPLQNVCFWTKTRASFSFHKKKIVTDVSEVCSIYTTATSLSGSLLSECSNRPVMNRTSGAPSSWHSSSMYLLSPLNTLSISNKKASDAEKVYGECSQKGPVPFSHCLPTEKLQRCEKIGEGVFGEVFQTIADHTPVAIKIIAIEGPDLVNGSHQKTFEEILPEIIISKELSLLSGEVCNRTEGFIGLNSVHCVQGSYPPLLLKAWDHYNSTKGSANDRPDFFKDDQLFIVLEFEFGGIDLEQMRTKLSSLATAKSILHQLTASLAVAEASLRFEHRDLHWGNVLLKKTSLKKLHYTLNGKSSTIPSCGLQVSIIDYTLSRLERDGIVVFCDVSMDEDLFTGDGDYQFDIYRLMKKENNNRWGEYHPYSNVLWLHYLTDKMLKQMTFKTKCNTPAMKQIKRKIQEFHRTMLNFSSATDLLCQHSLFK
# Chain of AURKC (Q9UQB9 whole entry): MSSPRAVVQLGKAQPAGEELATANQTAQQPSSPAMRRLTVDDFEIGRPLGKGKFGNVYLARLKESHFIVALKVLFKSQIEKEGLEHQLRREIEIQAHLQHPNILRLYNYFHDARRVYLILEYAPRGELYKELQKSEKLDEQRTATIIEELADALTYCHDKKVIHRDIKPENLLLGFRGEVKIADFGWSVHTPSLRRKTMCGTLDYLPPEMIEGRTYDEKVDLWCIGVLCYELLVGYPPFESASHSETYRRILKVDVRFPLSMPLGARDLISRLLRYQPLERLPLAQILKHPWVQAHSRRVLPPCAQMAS
# Chain of GCN2 (Kin.Dom.2, S808G) (Q9P2K8 590-1001 S808G): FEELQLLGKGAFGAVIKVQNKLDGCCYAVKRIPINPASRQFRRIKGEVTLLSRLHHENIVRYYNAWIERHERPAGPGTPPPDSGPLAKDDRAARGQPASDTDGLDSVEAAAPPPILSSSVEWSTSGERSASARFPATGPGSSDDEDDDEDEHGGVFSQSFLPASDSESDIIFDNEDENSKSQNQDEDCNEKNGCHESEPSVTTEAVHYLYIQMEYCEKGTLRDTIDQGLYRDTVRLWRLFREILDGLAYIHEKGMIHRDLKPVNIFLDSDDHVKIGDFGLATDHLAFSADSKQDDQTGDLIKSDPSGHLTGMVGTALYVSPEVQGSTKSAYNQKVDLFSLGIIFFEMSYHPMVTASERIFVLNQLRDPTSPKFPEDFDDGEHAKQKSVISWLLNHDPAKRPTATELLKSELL
# Chain of ARK5 (O60285 whole entry): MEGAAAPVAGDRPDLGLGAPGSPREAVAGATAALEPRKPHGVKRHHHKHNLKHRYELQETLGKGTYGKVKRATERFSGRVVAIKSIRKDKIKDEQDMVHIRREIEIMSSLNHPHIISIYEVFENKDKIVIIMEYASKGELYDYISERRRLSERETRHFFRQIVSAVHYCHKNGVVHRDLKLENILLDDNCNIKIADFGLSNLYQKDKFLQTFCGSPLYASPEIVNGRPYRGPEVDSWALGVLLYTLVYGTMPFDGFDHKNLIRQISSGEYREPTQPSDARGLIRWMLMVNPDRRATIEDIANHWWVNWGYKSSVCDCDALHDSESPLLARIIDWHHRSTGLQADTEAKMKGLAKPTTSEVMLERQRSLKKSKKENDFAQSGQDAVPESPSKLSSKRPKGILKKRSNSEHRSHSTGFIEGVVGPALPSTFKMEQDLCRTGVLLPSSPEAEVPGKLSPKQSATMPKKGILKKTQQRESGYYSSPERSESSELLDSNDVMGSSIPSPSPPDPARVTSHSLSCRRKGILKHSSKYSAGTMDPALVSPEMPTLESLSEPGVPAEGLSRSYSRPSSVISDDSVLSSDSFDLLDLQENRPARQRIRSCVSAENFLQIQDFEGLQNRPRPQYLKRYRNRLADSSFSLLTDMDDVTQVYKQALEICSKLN
structure (smiles),measurement,setting,value
COc1ccc(N2C(=O)N(c3c(C)cccc3C)Cc3cnc(Nc4ccc(N5CCN(C)CC5)cc4)nc32)c(OC)c1 [HG-11-136-01],KINOMEscan PIK3CA (E545A),PIK3CA (E545A),69
same,KINOMEscan DDR1,DDR1,0.3
same,KINOMEscan LATS2,LATS2,60
same,KINOMEscan YES,YES,0.05
same,KINOMEscan FGFR4,FGFR4,2
same,KINOMEscan EPHA4,EPHA4,0
same,KINOMEscan AURKC,AURKC,33
same,KINOMEscan ARK5,ARK5,8.2
same,KINOMEscan NEK3,NEK3,39
same,KINOMEscan ERBB2,ERBB2,0
same,KINOMEscan ACVR1,ACVR1,2.8
same,KINOMEscan BIKE,BIKE,8.8
same,KINOMEscan YANK1,YANK1,0.2
same,KINOMEscan MKNK2,MKNK2,99
same,KINOMEscan NDR1,NDR1,46
same,KINOMEscan CDK4-cyclinD3,CDK4-cyclinD3,26
same,KINOMEscan RSK2 (Kin.Dom.1-N-terminal),[1],12
same,KINOMEscan CLK1,CLK1,19
same,KINOMEscan GRK1,GRK1,77
same,KINOMEscan PIK3CA (H1047L),PIK3CA (H1047L),96
same,KINOMEscan HPK1,HPK1,0.95
same,KINOMEscan ABL1 (Q252H)-nonphosphorylated,[2],0
same,KINOMEscan LIMK2,LIMK2,0
same,KINOMEscan MEK2,MEK2,0.2
same,KINOMEscan DAPK1,DAPK1,63
same,KINOMEscan MAP3K2,MAP3K2,0.05
same,KINOMEscan FLT3 (ITD),FLT3 (ITD),57
same,KINOMEscan HASPIN,HASPIN,92
same,KINOMEscan MLK2,MLK2,11
same,KINOMEscan ERK1,ERK1,100
same,KINOMEscan MAP3K15,MAP3K15,40
same,"KINOMEscan GCN2 (Kin.Dom.2, S808G)","GCN2 (Kin.Dom.2, S808G)",0.75
same,KINOMEscan FYN,FYN,0.35
same,KINOMEscan OSR1,OSR1,49
same,KINOMEscan PCTK1,PCTK1,73
same,KINOMEscan ABL1 (F317L)-phosphorylated,[3],1.8
same,KINOMEscan PRKD2,PRKD2,3.6
same,KINOMEscan SRC,SRC,0.15
same,KINOMEscan MERTK,MERTK,5.6
same,KINOMEscan ERK2,ERK2,96
same,KINOMEscan KIT (D816V),KIT (D816V),0.2
